Consider four compounds from PMC10150365 (Journal of Medicinal Chemistry, 2023).

In brackets after ≈: the same amount, converted by molar mass. Several values for one entry are separate records, joined by “and”; a condition that tells them apart may be missing. Equal entries are not always repeated. Where two headings read alike, the source gives them in different places. Marks after values point to notes of the source that are not given here.

The nature of data set [1]: Rat blood PK (Sprague-Dawley). It is filed as in vivo. The note with it: SD rats.
Data set [2] can be described thus: Free fraction in CellTiter-Blue assay medium (dialysis). It is filed as in vitro ADME. The settings on record: dialysis from CellTiter-Blue assay medium; 90% CI. For orientation: Alamar Blue is a resazurin reagent that responds to reducing activity.
The nature of data set [3]: Plasma protein binding and blood-to-plasma ratio. Type of data set: in vitro ADME, mouse.
Data set [4] is described as follows: Plasma protein binding and blood-to-plasma ratio. It is filed as in vitro ADME, rat.
A further data set in a line: Plasma stability. It is filed as in vitro ADME. The settings on record: pooled plasma, read-out: Compound remaining (% of 0 min); for remaining at 15 min, 1 µM: 37 °C. As to the method:
AUCu0-24h was assumed from the mouse efficacy study. […] F=oral bioavailability and
Compd Species Compound remaining (% of 0 min)

Data set [5] in a line: in vitro. The note with it: human; for recovery: Caco-2, pH 7.4, Recovery.
The nature of data set [6]: Plasma protein binding and blood-to-plasma ratio. The note with it: for fub: BALB/c mouse blood, fub = fup/B:P; for Plasma, fup: BALB/c mouse, 90% CI.
For another data set, the system named is SK-OV-3. Nature of the data set: cells. Type of data set: cell-based, human. The settings on record: for GI50: Homo sapiens.
Data set [7] in a line: in vitro. It is filed as in vitro ADME, mouse.
Data set [8] can be described thus: in vitro. Type of data set: in vitro ADME. The note with it: male, Sprague Dawley, rat, microsomes, pH 7.4; n = 1, fraction unbound assumed 1; read-out: Microsome Clint, rat (RLM).
Data set [9] in a line: in vitro. Type of data set: in vitro ADME. The settings on record: both sexes, human, microsomes, pH 7.4; n = 1, fraction unbound assumed 1; read-out: Microsome Clint, human (HLM).
Data set [10] can be described thus: in vitro. It is filed as in vitro ADME. The settings on record: mouse.
A short description of data set [11]: iv PK in CF1 wild-type and P-gp-knockout mice. Type of data set: in vivo, mouse. The settings on record: mouse, in vivo, iv, 5 mg/kg, read-out: Vss.
A further data set deals with P-gp. Nature of the data set: iv PK in CF1 wild-type and P-gp-knockout mice. Type of data set: in vivo, mouse. The note with it: for Cltb: 5 mg/kg iv, 90% CI, 5 mg/kg.
The test system of data set [12] is P-gp-mediated efflux (CH1^doxR/CH1^WT). It is filed as cell-based, human. The note with it: ratio of geometric mean GI50 values, CellTiter-Blue.
The nature of data set [13]: physchem. The note with it: pH 7.4.
The nature of data set [14]: physchem. The note with it: pH 7.4. This is another data set of the same source.
For another data set, the system named is CH1^WT. Nature of the data set: CH1 WT growth inhibition, CellTiter-Blue. The settings on record: Homo sapiens, CH1WT. It is filed as cell-based.
Another data set concerns CH1^doxR. Nature of the data set: CH1doxR growth inhibition, CellTiter-Blue. Type of data set: cell-based, human.
A further data set deals with OVCAR5. The note with it: OVCAR5, 96 h.
A further data set relates to PA1. The settings on record: PA1, 96 h.
The test system of a further data set is RMG-1. The settings on record: RMG-1, 96 h.
The subject of data set [15] is human ovarian cancer cell lines. The note with it: carboplatin N = 4 cell lines; 1 N = 9 cell lines.
Setting [16] is: female, BALB/c, mouse, in vivo, po, 5 mg/kg.

In turn, `Cc1ccc(NC(=O)c2ccc3c(c2)OCCO3)cc1NC(=O)c1ccc2nc(OCCN3CCCC3)ccc2c1` [Compound 1] gave an Fmax in data set [1] of 71%. Further, in data set [1] (iv), the “iv Cltb” value was determined as 20 mL/min/kg. For the same compound, the “Free Cav^0–24h” value in data set [1] (po (Table S12)) is given as 0.72 nM. The same compound registered a Vdu in data set [1] (Vss/fub) of 230 L/kg. Further, the Cmax (usually the highest concentration seen after dosing) in [1] (female, Sprague-Dawley (CD), rat, whole blood, 5 mg/kg, po) amounted to 63 nM. In addition, the bioavailability – broadly, dose-corrected exposure relative to a reference, in per cent – at 24 h in [1] (female, Sprague-Dawley (CD), rat, whole blood, po, 5 mg/kg) worked out at 11%. Moreover, the Vd in [1] (female, Sprague-Dawley (CD), rat, whole blood, iv, read-out: Vss) stood at 4.4 L/kg. Besides, the Tmax (as a rule, the time at which the peak concentration occurs) in data set [1] (female, Sprague-Dawley, rat, whole blood, 5 mg/kg, po) is > 6 h. Moreover, in [1] (female, Sprague-Dawley, rat, whole blood, 5 mg/kg, terminal, from iv dose), the half-life – broadly, the time in which the quantity being followed falls by half – is 3.2 h. Further, in data set [1] (female, Sprague-Dawley, rat, whole blood, po, 5 mg/kg, po, t = 24 h, read-out: po AUC^0–t), the AUC (as a rule, the area under the concentration-time curve, a measure of exposure) came to 0.84 µM·h. Also, in data set [2], the “Assay medium, fua” value is given as 0.47 (0.54-0.42). For the same compound, the fub in [3] (athymic mouse blood, fub = fup/B:P) is 0.015; in data set [4] (Sprague Dawley rat blood, fub = fup/B:P), 0.019; in [6], 0.0083. Further, the “Plasma, fup” value in data set [3] (athymic mouse, 90% CI) is reported as 0.025 (0.031-0.020); in data set [4] (Sprague Dawley rat, 90% CI), 0.029 (0.036-0.023); in [6], 0.010. In addition, the fraction remaining at 15 min, 1 µM in “Plasma stability” (human plasma) is 104%; in the data set “Plasma stability” (mouse plasma), 97.8%. Also, the results for the fraction remaining at 30 min, 1 µM in “Plasma stability” (human plasma) and in “Plasma stability” (mouse plasma) were 96.4% and 91.3%, respectively. Further, the share remaining at 60 min, 1 µM in “Plasma stability” (human plasma) came out at 97%; in “Plasma stability” (mouse plasma), 93.3%. Besides, the fraction remaining at 120 min, 1 µM in the data set “Plasma stability” (human plasma) came out at 95.1%; in “Plasma stability” (mouse plasma), 85.9%. Moreover, the A2B with Caco-2 (geometric mean) is reported as 2.4 nm/s. Moreover, the B2A is 39 nm/s in the data set on Caco-2 (geometric mean); 23 nm/s and 46 nm/s and 55 nm/s in the data set on Caco-2 (individual experiments). Further, the “A2B + LY335979” value in the data set with Caco-2 (individual experiments) is 2.3 nm/s. Besides, the “B2A + LY335979” value in the data set on Caco-2 (individual experiments) worked out at 15 nm/s. Moreover, in the data set “in vitro [5]” (Caco-2, pH 7.4), the Papp A→B (in general, the apparent permeability from the apical to the basolateral side of a cell layer) at 2 h, 10 µM is 2.4 ×10⁻⁶ cm/s. Besides, the recovery in the data set “in vitro [5]” (A2B + LY335979, geometric mean row) stood at 50%; in “in vitro [5]” (A2B + LY335979, individual experiments), 50%; in the data set “in vitro [5]” (A2B, geometric mean row), 90%; in “in vitro [5]” (A2B, individual experiments) it was 90%; in the data set “in vitro [5]” (B2A + LY335979, geometric mean row) it was 100%; in the data set “in vitro [5]” (B2A + LY335979, individual experiments), 100%. The recovery in “in vitro [5]” (B2A, geometric mean row) came out at 70%; in “in vitro [5]” (B2A, individual experiments), 70%.
For `Cc1ccc(NC(=O)c2ccc3c(c2)OCCO3)cc1NC(=O)c1ccc2nc(CN3CCN(C(C)C)CC3)ccc2c1` [Compound 16, N-(5-(2,3-Dihydrobenzo[b][1,4]dioxine-6-carboxamido)-2-methylphenyl)-2-((4-isopropylpiperazin-1-yl)methyl)quinoline-6-carboxamide], the GI50 with SK-OV-3 (SK-OV-3, 96 h, read-out: SK-OV-3 pGI50 ± SEM (n) (converted)) is 8.71 nM; in the data set with SK-OV-3 (SK-OV-3, 96 h, CellTiter-Blue, geometric mean, read-out: SK-OV-3 GI50), 8.8 nM. In addition, the microsomal CLint in the data set “in vitro [7]” (male, CD1, mouse, microsomes, pH 7.4, n = 1, fraction unbound assumed 1, read-out: Microsome Clint, mouse (MLM)) amounted to 10 µL/min/mg. Moreover, the “Pred. in vivo CLu from MLM” value in the data set “in vitro [7]” (scaling factors, well-stirred model) was found to be 39 mL/min/kg. The microsomal CLint at 0.75 h, 1 µM came to 7 µL/min/mg in the data set “in vitro [8]” and 43 µL/min/mg in “in vitro [9]”. The hepatocyte CLint at 1 h, 1 µM in “in vitro [10]” (hepatocytes, n = 1, read-out: Mouse Heps CLint) is 20 µL/min/1e6 cells. The “Pred. in vivo CLu from Heps” value in “in vitro [10]” (fraction unbound in assay assumed 0.4 or 0.2) is reported as 460 ^h mL/min/kg. For the same compound, the Vd was determined as 3.6 L/kg in data set [11] (CF1 mdr1a P-gp deficient (CF1-Abcb1amds), CF1^PGP-KO mice); 3.2 L/kg in data set [11] (CF1 wild type, CF1^WT mice); 2.6 L/kg in “Mouse blood PK (BALB/c)” (female, BALB/c, mouse, in vivo, iv). Also, the “Extraction Ratio (% of HBF)” value with P-gp (CF1^PGP-KO mice) is listed as 27 (21-34) %; in the data set on P-gp (CF1^WT mice), 39 (46-33) %. The Cltb with P-gp (CF1^PGP-KO mice) is 24 mL/min/kg and 24 (31-19) mL/min/kg; in the data set on P-gp (CF1^WT mice), 35 mL/min/kg and 35 (42-30) mL/min/kg. Further, the “CH1^doxR/CH1^WT (fold resistance)” value in data set [12] stood at 8.4. The chromatographic logD (usually lipophilicity estimated from chromatographic retention) in “physchem [13]” stood at 1.9. Also, the kinetic solubility – broadly, solubility judged after dilution from a stock solution rather than from solid – at 2 h, 100 µM in “physchem [14]” was found to be 80 µM (≈ 46.4 µg/mL). In “Mouse blood PK (BALB/c)” (BALB/c mice), this compound returned an Fmax of 62%. In the data set “Mouse blood PK (BALB/c)” (BALB/c mice, iv 5 mg/kg (18: 1 mg/kg), 90% CI), the “iv Cltb” value was 34 (36–32) mL/min/kg. The “Free Cav^0–24h” value in the data set “Mouse blood PK (BALB/c)” (BALB/c mice, po, AUC^inf/24*fub) came to 0.66 nM. The compound also returned a CLu in the data set “Mouse blood PK (BALB/c)” (BALB/c mice, CLtb/fub) of 1100 mL/min/kg. This compound showed a Vdu in “Mouse blood PK (BALB/c)” (BALB/c mice, Vss/fub) of 80 L/kg. Besides, the extraction ratio in the data set “Mouse blood PK (BALB/c)” (BALB/c mice, hepatic blood flow 90 mL/min/kg) was 38%. Moreover, the half-life at 24 h in the data set “Mouse blood PK (BALB/c)” (female, BALB/c, mouse, in vivo, iv, 5 mg/kg) was 1.2 h. In addition, the concentration in the data set “Mouse blood PK (BALB/c)” (setting [16]) peaked (Cmax) at 130 nM. For the same compound, in “Mouse blood PK (BALB/c)” (setting [16]), the Tmax at 24 h worked out at 1.7 h. The bioavailability at 24 h in “Mouse blood PK (BALB/c)” (setting [16]) was 11%. For the same compound, the AUC is 0.014 µM·h in “Mouse blood PK (BALB/c)” (female, BALB/c, mouse, in vivo, po, 5 mg/kg, AUCu^0–6h, BALB/c mice, AUC*fub) and 0.43 µM·h in the data set “Mouse blood PK (BALB/c)” (female, BALB/c, mouse, in vivo, po, 5 mg/kg, po AUC^0–6h, BALB/c mice, po 5 mg/kg, 90% CI). Besides, in [6], the fub is 0.032. In data set [6], the “Plasma, fup” value is 0.042 (0.071-0.024). For the same compound, in data set [6] (female, BALB/c, mouse, plasma), the blood plasma ratio at 30 min, 1 µM turned out to be 1.3.
Regarding `COc1cccc2c1C(=O)c1c(O)c3c(c(O)c1C2=O)C[C@@](O)(C(=O)CO)C[C@@H]3O[C@H]1C[C@H](N)[C@H](O)[C@H](C)O1` [Doxorubicin], the GI50 in the data set with CH1^WT (+ verapamil 2 µM) amounted to 0.3 nM; in the data set on CH1^WT (no verapamil), 0.4 nM; with CH1^doxR (Homo sapiens, + verapamil 2 µM), 1.9 nM; in the data set with CH1^doxR (Homo sapiens, no verapamil), 310 nM; with CH1^doxR (no verapamil), 305 nM.
In the case of Carboplatin, the “SK-OV-3 pGI50 ± SEM (n)” value in the data set with SK-OV-3 (96 h, CellTiter-Blue, pGI50 = −log GI50 (M)) is listed as < 4.7. The “pGI50±SEM (n)” value was < 5.0 with OVCAR5, 5.8 in the data set with PA1 and < 4.7 in the data set on RMG-1. Further, the “pGI50 across the panel” value in [15] was < 6.
